In patent US10597388B2, “Pyridazinone herbicides” (FMC CORPORATION, priority 2014, dated 2020):

Key:
Assay type in all cases: in vivo
corn (Zea mays) = assay: Test A greenhouse herbicide test, pre- and postemergence; settings: Postemergence
Procedure, shortened: (§1)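 Visual injury ratings, 0 (no effect) to 100 (complete control), versus untreated plants after roughly 10 d in a greenhouse. Compounds, formulated in a surfactant-containing non-phytotoxic solvent, were sprayed on loam–sand soil after sowing (pre) or on one- to two-leaf plants 2–10 cm tall (post).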

[1] = test system: foxtail, giant (giant foxtail, Setaria faberii); assay: as above
Procedure, shortened: as §1

kochia (Kochia scoparia) = assay: as above
Procedure, shortened: as §1

[2] = test system: ragweed (common ragweed, Ambrosia elatior); assay: as above
Procedure, shortened: as §1

[3] = test system: ryegrass, Italian (Italian ryegrass, Lolium multiflorum); assay: as above
Procedure, shortened: as §1

[4] = test system: wheat (Triticum aestivum); assay: as above; settings: Postemergence
Procedure, shortened: as §1

[5] = test system: blackgrass (Alopecurus myosuroides); assay: Test A greenhouse herbicide test, postemergence
Procedure, shortened: (§2)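 Scores are visual injury ratings from 0 (no effect) to 100 (complete control) versus untreated plants, taken roughly 10 d after treatment in the greenhouse. Treatment was postemergence, on one- to two-leaf plants 2–10 cm high growing in a loam soil/sand mix.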

[6] = test system: galium (catchweed bedstraw, Galium aparine); assay: Test A greenhouse herbicide test, postemergence
Procedure, shortened: as §2

[7] = test system: galium (catchweed bedstraw, Galium aparine); assay: Test C greenhouse herbicide test, pre- and postemergence
Procedure, shortened: (§3)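 Greenhouse pots; pre-em on seeded loam:sand blend, post-em on 2–18 cm plants (1–4 leaf) in sphagnum peat/vermiculite medium. Formulation: non-phytotoxic solvent + surfactant. Read-out: visual % control (0–100) vs controls at 13–15 d.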

[8] = test system: ragweed (common ragweed, Ambrosia elatior); assay: as above
Procedure, shortened: as §3

[9] = test system: ryegrass, Italian (Italian ryegrass, Lolium multiflorum); assay: as above
Procedure, shortened: as §3

soybean (Glycine max) = assay: as above
Procedure, shortened: as §3

[10] = 125 g ai/ha, 0 to 100 scale, 0 no effect, 100 complete control
[11] = 500 g ai/ha, visual rating after approx. 10 d, 0 to 100 scale (0 no effect, 100 complete control)
[12] = Postemergence, 125 g ai/ha, 0 to 100 scale, 0 no effect, 100 complete control
[13] = Postemergence, 500 g ai/ha, visual rating after approx. 10 d, 0 to 100 scale (0 no effect, 100 complete control)
[14] = Preemergence, 125 g ai/ha, visual injury rating, 0 to 100 scale (0 no effect, 100 complete control), approx. 10 d
[15] = Preemergence, 500 g ai/ha, 0 to 100 scale where 0 is no effect and 100 is complete control
[16] = Postemergence, 31 g ai/ha, scale 0 to 100 (0 no effect, 100 complete control)
[17] = Postemergence, 62 g ai/ha, 0 to 100 scale (0 no effect, 100 complete control)
[18] = Postemergence, 250 g ai/ha, scale 0 to 100, 0 no effect, 100 complete control, 13 to 15 d
[19] = Preemergence, 31 g ai/ha, scale 0 to 100, 0 is no effect, 100 is complete control
[20] = Preemergence, 62 g ai/ha, scale 0 to 100, 0 is no effect, 100 is complete control
[21] = Preemergence, 125 g ai/ha, scale 0 to 100, 0 is no effect, 100 is complete control
[22] = Preemergence, 250 g ai/ha, scale 0 to 100 (0 no effect, 100 complete control)
[23] = postemergence, 125 g ai/ha, scale 0 to 100, 0 no effect, 100 complete control

Cc1cc(C)c2ccccc2c1-c1c(OS(C)(=O)=O)c(C)nn(C)c1=O [Compound 154]
Plant response rating, Corn (corn (Zea mays); [10]): 0 | Plant response rating, Corn (corn (Zea mays); [11]): 40 | Plant response rating, Foxtail, Giant [1, 12]: 90 | Plant response rating, Foxtail, Giant [1, 13]: 90 | Plant response rating, Foxtail, Giant [1, 14]: 90 | Plant response rating, Foxtail, Giant [1, 15]: 100 | Plant response rating, Kochia (kochia (Kochia scoparia); [12]): 20 | Plant response rating, Kochia (kochia (Kochia scoparia); [13]): 50 | Plant response rating, Kochia (kochia (Kochia scoparia); [14]): 0 | Plant response rating, Kochia (kochia (Kochia scoparia); [15]): 20 | Plant response rating, Ragweed [2, 12]: 80 | Plant response rating, Ragweed [2, 13]: 80 | Plant response rating, Ragweed [2, 14]: 80 | Plant response rating, Ragweed [2, 15]: 90 | Plant response rating, Ryegrass, Italian [3, 12]: 90 | Plant response rating, Ryegrass, Italian [3, 13]: 100 | Plant response rating, Ryegrass, Italian [3, 14]: 90 | Plant response rating, Ryegrass, Italian [3, 15]: 100 | Plant response rating, Wheat [4, 10]: 0 | Plant response rating, Wheat [4, 11]: 20 | Plant response rating, Blackgrass [5, 10]: 70 | Plant response rating, Blackgrass [5, 11]: 90 | Plant response rating, Galium [6, 10]: 100 | Plant response rating, Galium [6, 11]: 100 | Plant response rating, Galium [7, 16]: 95 | Galium plant response rating [7, 17]: 95 | Plant response rating, Galium [7, 18]: 95 | Plant response rating, Galium [7, 19]: 98 | Plant response rating, Galium [7, 20]: 95 | Plant response rating, Galium [7, 21]: 98 | Galium plant response rating [7, 22]: 100 | Galium plant response rating [7, 23]: 95 | Plant response rating, Ragweed [8, 16]: 70 | Ragweed plant response rating [8, 17]: 75 | Plant response rating, Ragweed [8, 18]: 90 | Plant response rating, Ragweed [8, 19]: 80 | Plant response rating, Ragweed [8, 20]: 95 | Plant response rating, Ragweed [8, 21]: 90 | Ragweed plant response rating [8, 22]: 95 | Ragweed plant response rating [8, 23]: 85 | Plant response rating, Ryegrass, Italian [9, 16]: 80 | Ryegrass, Italian plant response rating [9, 17]: 90 | Plant response rating, Ryegrass, Italian [9, 18]: 95 | Plant response rating, Ryegrass, Italian [9, 19]: 40 | Plant response rating, Ryegrass, Italian [9, 20]: 55 | Plant response rating, Ryegrass, Italian [9, 21]: 90 | Ryegrass, Italian plant response rating [9, 22]: 90 | Ryegrass, Italian plant response rating [9, 23]: 90 | Plant response rating, Soybean (soybean (Glycine max); [16]): 10 | Soybean plant response rating (soybean (Glycine max); [17]): 20 | Plant response rating, Soybean (soybean (Glycine max); [18]): 25 | Plant response rating, Soybean (soybean (Glycine max); [19]): 0 | Plant response rating, Soybean (soybean (Glycine max); [20]): 5 | Plant response rating, Soybean (soybean (Glycine max); [21]): 5 | Soybean plant response rating (soybean (Glycine max); [22]): 20 | Soybean plant response rating (soybean (Glycine max); [23]): 20

COC(=O)Oc1c(C)nn(C)c(=O)c1-c1c([N+](=O)[O-])ccc2ccccc12 [Compound 162]
Plant response rating, Corn (corn (Zea mays); [10]): 20 | Plant response rating, Corn (corn (Zea mays); [11]): 30 | Plant response rating, Foxtail, Giant [1, 12]: 20 | Plant response rating, Foxtail, Giant [1, 13]: 40 | Plant response rating, Foxtail, Giant [1, 14]: 10 | Plant response rating, Foxtail, Giant [1, 15]: 40 | Plant response rating, Kochia (kochia (Kochia scoparia); [12]): 70 | Plant response rating, Kochia (kochia (Kochia scoparia); [13]): 90 | Plant response rating, Kochia (kochia (Kochia scoparia); [14]): 60 | Plant response rating, Kochia (kochia (Kochia scoparia); [15]): 90 | Plant response rating, Ragweed [2, 12]: 80 | Plant response rating, Ragweed [2, 13]: 100 | Plant response rating, Ragweed [2, 14]: 50 | Plant response rating, Ragweed [2, 15]: 90 | Plant response rating, Ryegrass, Italian [3, 12]: 60 | Plant response rating, Ryegrass, Italian [3, 13]: 90 | Plant response rating, Ryegrass, Italian [3, 14]: 40 | Plant response rating, Ryegrass, Italian [3, 15]: 100 | Plant response rating, Wheat [4, 10]: 0 | Plant response rating, Wheat [4, 11]: 20 | Plant response rating, Blackgrass [5, 10]: 20 | Plant response rating, Blackgrass [5, 11]: 40 | Plant response rating, Galium [6, 10]: 90 | Plant response rating, Galium [6, 11]: 100 | Plant response rating, Galium [7, 16]: 90 | Galium plant response rating [7, 17]: 90 | Plant response rating, Galium [7, 18]: 98 | Galium plant response rating [7, 23]: 95 | Plant response rating, Ragweed [8, 16]: 70 | Ragweed plant response rating [8, 17]: 85 | Plant response rating, Ragweed [8, 18]: 90 | Ragweed plant response rating [8, 23]: 75 | Plant response rating, Ryegrass, Italian [9, 16]: 60 | Ryegrass, Italian plant response rating [9, 17]: 70 | Plant response rating, Ryegrass, Italian [9, 18]: 80 | Ryegrass, Italian plant response rating [9, 23]: 70 | Plant response rating, Soybean (soybean (Glycine max); [16]): 0 | Soybean plant response rating (soybean (Glycine max); [17]): 0 | Plant response rating, Soybean (soybean (Glycine max); [18]): 0 | Soybean plant response rating (soybean (Glycine max); [23]): 0
